Experimental data from patent US20220041691A1, “METHODS FOR DIAGNOSING OR TREATING POST-TRAUMATIC STRESS DISORDER, AND COMPOSITIONS THEREFOR” (Centre for Addiction and Mental Health, priority 2018, published 2022).
Changes are numbered by the printed parent chain.

T1: GR-FKBP51 complex (Mus musculus, UniProt Q64378)
T1 construct: from tissue; host or cells: C57Bl/6 mouse brain (acute slices; whole-brain lysate) and blood lymphocytes
T1 sequence (Q64378 1-456): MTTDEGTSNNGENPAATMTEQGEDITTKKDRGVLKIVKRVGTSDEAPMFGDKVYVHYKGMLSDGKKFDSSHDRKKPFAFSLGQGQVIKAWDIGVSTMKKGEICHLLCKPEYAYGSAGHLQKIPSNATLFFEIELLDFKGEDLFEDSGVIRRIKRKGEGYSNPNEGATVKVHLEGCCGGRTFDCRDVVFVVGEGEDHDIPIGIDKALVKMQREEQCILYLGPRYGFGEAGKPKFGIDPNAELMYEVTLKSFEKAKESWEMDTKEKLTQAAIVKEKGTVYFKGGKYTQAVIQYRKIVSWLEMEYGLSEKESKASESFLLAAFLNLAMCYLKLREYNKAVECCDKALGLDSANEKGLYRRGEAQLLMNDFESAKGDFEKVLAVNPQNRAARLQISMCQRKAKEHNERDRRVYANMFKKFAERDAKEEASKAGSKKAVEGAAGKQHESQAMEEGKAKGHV

T2: Flag-tagged GR, wild-type (human, UniProt P04150 1-777)
T2 construct: Expressed in HEK293(T) cells; also called Flag-GR; WT-GR; not shown: Flag tag
T2 sequence: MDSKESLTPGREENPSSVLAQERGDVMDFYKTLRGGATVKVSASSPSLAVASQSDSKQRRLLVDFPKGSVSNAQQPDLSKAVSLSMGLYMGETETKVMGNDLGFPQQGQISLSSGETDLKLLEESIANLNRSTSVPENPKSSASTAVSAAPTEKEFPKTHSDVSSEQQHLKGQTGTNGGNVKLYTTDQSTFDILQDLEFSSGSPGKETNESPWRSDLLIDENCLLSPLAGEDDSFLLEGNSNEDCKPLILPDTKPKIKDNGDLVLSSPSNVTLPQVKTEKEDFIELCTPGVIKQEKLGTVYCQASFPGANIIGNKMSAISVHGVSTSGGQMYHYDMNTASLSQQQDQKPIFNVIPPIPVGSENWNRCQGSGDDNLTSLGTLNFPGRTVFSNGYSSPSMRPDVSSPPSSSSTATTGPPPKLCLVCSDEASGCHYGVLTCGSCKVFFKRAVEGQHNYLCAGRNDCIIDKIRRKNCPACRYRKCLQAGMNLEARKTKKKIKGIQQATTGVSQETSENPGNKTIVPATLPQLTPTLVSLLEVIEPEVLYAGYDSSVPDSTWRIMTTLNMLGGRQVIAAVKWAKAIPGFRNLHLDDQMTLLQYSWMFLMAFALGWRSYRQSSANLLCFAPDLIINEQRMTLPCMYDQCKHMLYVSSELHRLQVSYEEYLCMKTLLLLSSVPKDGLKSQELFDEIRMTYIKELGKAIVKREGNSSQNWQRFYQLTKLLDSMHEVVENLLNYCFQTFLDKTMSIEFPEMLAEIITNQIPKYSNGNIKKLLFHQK

T3: Flag-tagged GR S211A mutant (non-phosphorylated GR mutant) (human, UniProt P04150 1-777)
T3 construct: also called S211A-GR; S211A GR; not shown: Flag tag
T3 sequence: T2 sequence with S211A

T4: Flag-tagged GR S211E mutant (phosphomimetic GR mutant) (human, UniProt P04150 1-777)
T4 construct: also called S211E-GR; S211E GR; not shown: Flag tag
T4 sequence: T2 sequence with S211E

B1: GST-FKBP51_TPR (GST fusion of the tetratricopeptide repeat domain of FKBP51) (other)
chain: EMDTKEKLEQAAIVKEKGTVYFKGGKYMQAVIQYGKIVSWLEMEYGLSEKESKASESFLLAAFLNLAMCYLKLREYTKAVECCDKALGLDSANEKGLYRRGEAQLLMNEFESAKGDFEKVLEVNPQNKAARLQISMCQKKAKEHNERDRRIYANMFKKFAEQDAKEEANKAMGKKTSEGVTNEKGTDSQAMEEEKPEGHV
notes: also called GST-TPR; FKBP51 TPR domain; not shown: glutathione S-transferase (GST) tag; vector stated only for the GR fragments (pGEX-4T3)

Legend:
fear-conditioned mice = experiment: Cued fear conditioning, systemic (i.p.) peptide delivery; assay type: in vivo, mouse; conditions: p<0.05
Protocol: Next, testing was performed to determine whether TAT-GRpep can block the emergence of PTSD-like fear-related behaviours when administrated systemically. Animals underwent five rounds of CS-US pairings followed by 5 days of extinction training before the expression of fear in response to the learned cue was assessed (FIG. 4A). Mice were injected with either TAT-GRpep or TAT intraperitoneally (3 nmol/g, i.p.) one hour before the test.
Furthermore, testing was performed to determine whether disrupting the GR-FKBP51 complex reduced consolidation of cued fear memory. Thus, TAT or TAT-GRpep was administered two hours after the end of fear conditioning training (FIG. 4C), before five consecutive daily extinction sessions of cue exposure without shock. […] This may therefore indicate a potential approach to both preventing and treating PTSD-like behaviour in the aftermath of trauma, for example.
Animals were first given a five-minute habituation to the apparatus (Habitest, Colbourne Instruments). Then, animals were exposed to 30 seconds of cue exposure (an in-house white light), which co-terminated with one second of foot-shock (0.5 mA). The cue exposure and foot-shock were repeated five times, intermitted by 5-minute inter-trial intervals. Following the conditioning, animals were subjected to 2-5 days of extinction before the assessment of their cued fear memory, which consisted of 15 rounds of 30-second cue exposure, with 30-second inter-trial intervals (adapted from Andero et al.).^48
The expression of fear (in a different context from training) was assessed 24 hours after the last extinction training. The assessment consisted of a three-minute period of habituation (absence of CS) and a sequent three-minute trial of conditioned cues. The duration of freezing behaviors was recorded by a blinded experimenter. Peptide treatment was either administered 2 hours after the conditioning or 30 minutes before the behavioral assessment.

GR-FKBP51 complex = biological target: T1, GR-FKBP51 complex; experiment: Co-immunoprecipitation of GR-FKBP51 complex in brain and lymphocyte lysate of fear-conditioned mice injected with peptide; assay type: in vivo; conditions: brain lysate of fear-conditioned mice injected with TAT or TAT-GRpep; p<0.05, n=3
Protocol: Furthermore, testing was performed to determine whether disrupting the GR-FKBP51 complex reduced consolidation of cued fear memory. Thus, TAT or TAT-GRpep was administered two hours after the end of fear conditioning training (FIG. 4C), before five consecutive daily extinction sessions of cue exposure without shock.
(§1) Co-immunoprecipitation and Western blot analyses were performed as previously described.^24, 25, 26 For co-immunoprecipitation, 500˜1000 μg solubilized protein was extracted from whole mouse brain and incubated with primary antibody or control IgG (2˜4 μg) for 4 hrs at 4° C., followed by the addition of 25 μl protein A/G plus agarose (Santa Cruz Biotechnology) for 12 hrs. Pellets were washed, boiled for 5 min in SDS sample buffer and subjected to SDS-PAGE. 50˜100 μg of total protein extract was used as control in each experiment. After transfer of proteins into nitrocellulose, membranes were Western blotted with the primary antibodies. The intensity of protein level was quantified by densitometry (software: ImageLab, Bio-Rad).

[1] = system: GR phosphorylation at S211; experiment: Western blot of GR phosphorylation at S211 in brain lysate of fear-conditioned mice; assay type: in vivo, mouse; conditions: brain lysate of fear-conditioned mice injected with TAT or TAT-GRpep; p<0.05, n=3
Excerpt: To further investigate these findings, surface plasmon resonance (SPR) was used to estimate association and dissociation rates between GR and FKBP51. […] Thus, GR S211 phosphorylation seems to reduce GR affinity for FKBP51. Conversely, disruption of the GR-FKBP51 complex with TAT-GRpep could increase GR S211 phosphorylation, which is what was observed when comparing fear-conditioned mice treated with TAT-GRpep vs. TAT control or no treatment (FIG. 5 I-J).
as §1, with “Bio-Rad). […]” for “Bio-Rad).”

[2] = system: GR and FKBP52 colocalization in primary neurons; experiment: Immunocytochemistry of GR and FKBP52 in primary mouse neurons; assay type: cell-based; conditions: primary neurons 8 DIV, 10 μM, 45 min
Protocol: Cortical tissues from embryonic day (E14) mouse brains were dissected out, incubated with 0.25% trypsin for 15 min at 37° C., and dissociated by mechanical trituration. Neurons were then plated at a desired density onto glass coverslips previously coated with 0.1 mg/ml poly-d-lysine, and grown in Neurobasal medium with 1× Glutamax, 1×B27, 100 U/ml penicillin and 100 μg/ml streptomycin in an incubator (37° C., 5% CO2). Either 10 μM of TAT-GRpep, 10 μM TAT-control peptide or saline were added in culture plates for 45 min in advance at 8 days in vitro (8 DIV).
Cultured neurons were fixed in 4% PFA/4% sucrose, permeabilized with 0.1M PBS containing 0.1% Triton X-100 for 10 min, and blocked for 1 hour with 1% bovine serum albumin in PBS at room temperature. They were incubated with primary antibodies overnight at 4° C. and secondary antibodies for 1 hour at room temperature. The following primary antibodies were used: anti-GR (1:200; Thermo), anti-FKBP51 (1:200; Abcam) and anti-FKBP52 (1:200; Abcam). […] DAPI was used to stain cell nuclei.

[3] = biological target: T2, Flag-tagged GR, wild-type; experiment: SPR (Reichert SR7500DC, 25 C), FLAG-tagged GR captured on FLAG antibody-coated chip, GST-FKBP51_TPR injected
[4] = biological target: T3, Flag-tagged GR S211A mutant …; experiment: as above
[5] = biological target: T4, Flag-tagged GR S211E mutant …; experiment: as above

| Molecule | duration of freezing with the CS (fear-conditioned mice; 3 nmol/g i.p. one hour before the test, after 5 days of extinction training, three-minute cue trial) [s] | duration of freezing with the CS (consolidation of cued fear memory) (fear-conditioned mice; peptide administered two hours after end of fear conditioning, tested 24 hours after last of five daily extinction sessions) [s] | GR-FKBP51 complex level in brain (co-immunoprecipitation) (GR-FKBP51 complex) | GR phosphorylation at S211 [1] | nuclear GR-FKBP52 colocalization [2] | Kd [3] [µM] | Kd [4] [µM] | Kd [5] [µM] |
| --- | --- | --- | --- | --- | --- | --- | --- | --- |
| TAT: control peptide: cell-membrane transduction domain of the human immunodeficiency virus-type 1 TAT protein (GRKKRRQRRRPQ; Amino Acid Sequence of the Cell-Membrane Transduction Domain of HIV-Type 1 Transactivator of Transcription (TAT) Protein) [reference compound] | 64.2 ± 10.7 | 71.0 ± 3.6 | not | not | almost negligible amount of GR-FKBP52 complex |  |  |  |
| B1 |  |  |  |  |  | 3.31 | 0.412 | 3.9 |
